Measurements as given in patent US20220370453A1 (Storm Therapeutics Ltd, priority 2019, published 2022).

Columns and labels:
BCDIN3D [1] = target: T1, BCDIN3D (Homo sapiens, UniProt Q7Z5W3); test: BCDIN3D IC50 RFMS (RapidFire) assay with mini-helix; format: biochemical; settings: 25 nM enzyme
T1 sequence (Q7Z5W3 1-292): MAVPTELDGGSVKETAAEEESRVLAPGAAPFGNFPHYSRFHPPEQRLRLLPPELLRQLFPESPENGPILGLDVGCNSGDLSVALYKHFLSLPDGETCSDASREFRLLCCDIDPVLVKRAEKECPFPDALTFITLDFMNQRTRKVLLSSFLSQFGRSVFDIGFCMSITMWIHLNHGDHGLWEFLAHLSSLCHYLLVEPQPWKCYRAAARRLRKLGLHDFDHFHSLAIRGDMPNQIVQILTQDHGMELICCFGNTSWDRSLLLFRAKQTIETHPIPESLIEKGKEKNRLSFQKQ
Experimental: The following General Methods details the assay conditions for the Biological assays.
BCDIN3D IC50 RFMS Assay with Mini-Helix
The enzymatic assay was performed in a 384-well polypropylene plate in assay buffer with 25 mM Tris pH 8.0, 10 mM DTT, 1 mM EDTA, 0.03% BSA in a final assay volume of 20 μL. The enzyme with a final concentration of 25 nM was pre-incubated with the respective compound at 1% DMSO final assay concentration over 10 min at room temperature. The reaction was initiated by addition of 0.2 μM final assay concentration of mini-helix and 6 μM final concentration of SAM as substrates. After a 1 hr incubation at 37° C., the reaction was terminated with 40 μL of stop solution of 7.5% trichloroactetic acid in water containing 112.5 nM D4-SAH and 30 nM ^13C10-SAH used as internal standards. The SAH product concentrations as well as both internal standards were analyzed by a RapidFire High Throughput Mass Spectrometry System (Agilent Technologies, Santa Clara, Calif.) using an AP14000 triple quadrupole mass spectrometer (AB Sciex Framingham, Mass.).

BCDIN3D [2] = target: T1, BCDIN3D; test: BCDIN3D InCellPulse thermal stability assay in transfected A549 cells; format: cell-based; settings: heat shock 58° C. 15 min
Experimental: BCDIN3D InCellPulse™ Assay
The thermal stability assay was performed with lipofectamine 3000 transiently transfected A549 using the plasmid pICP-ePL-BCDIN3 Da. This plasmid encodes for BCDIN3D N-terminally fused to a Prolabel (ePL), complementing a split β-Galactosidase Enzyme System InCELL Pulse Technology (InCELL Hunter Detection Kit, DiscoverX/Eurofins, cat: 96-0079L). 20 μl A549 cells (1500 cell/well) were added with a multidrop device to compounds to a final DMSO concentration of 0.6% in 384-well polypropylene plate format in IMDM medium and pre-incubated with the compounds for 1 h at 37° C. and 5% CO2. Subsequently, a heat shock was applied to the entire sealed plate in a 58° C. water bath for 15 min. The plates were cooled to RT, spun down and 25 μl/well of EA Detection Solution at 3.3× (InCELL Hunter Detection Kit) was added per well. 21 μl of the mixture was added to a black 384-well measurement plate (Corning, PS, black, Flat Bottom, #3575), mix for 30 minutes on a plate shaker at RT. Finally, the luminescence was measured with a Perkin Elmer EnVision with 0.2 s measurement time in luminescence mode.

[3] = mini-helix 0.2 μM and SAM 6 μM as substrates, 1 hr at 37° C.
[4] = A549 cells transiently transfected with ePL-BCDIN3D, 1 h pre-incubation
[5] = mini-helix substrate 0.2 μM, SAM 6 μM
[6] = transiently transfected A549 cells

Row | SMILES | IC50 (BCDIN3D [1]; [3]) [µM] | IC50 (BCDIN3D [2]; [4]) [µM] | IC50 (BCDIN3D [1]; [5]) [µM] | IC50 (BCDIN3D [2]; [6]) [µM]
1 | Cn1ncc2c(Nc3ccc(C(F)(F)F)cc3)nc(NCC3(N)CCCCC3)nc21 [Compound 1.32, N6-[(1-aminocyclohexyl)methyl]-1-methyl-N4-[4-(trifluoromethyl)phenyl]pyrazolo[3,4-d]pyrimidine-4,6-diamine] | 0.0779 | 0.234 |  | 
2 | Cc1nn(C)c2nc(NCC(C)(C)N)nc(Nc3cccc(C(F)(F)F)c3)c12 [Compound 1.33, N6-(2-amino-2-methylpropyl)-1,3-dimethyl-N4-[3-(trifluoromethyl)phenyl]-1H-pyrazolo[3,4-d]pyrimidine-4,6-diamine] | 4.33 | 6.46 |  | 
3 | Cc1ccc(CNc2nc(NC3CCCCC3N)nc3c2cnn3C)cc1Cl (centres unmarked) [Compound 1.34, 6-N-(2-aminocyclohexyl)-4-N-[(3-chloro-4-methylphenyl)methyl]-1-methylpyrazolo[3,4-d]pyrimidine-4,6-diamine] | 1.14 | 1.41 |  | 
4 | Cn1ncc2c(Nc3ccc(C(F)(F)F)nc3)nc(NCC3(N)CCOCC3)nc21 [Compound 1.35, 6-N-[(4-aminooxan-4-yl)methyl]-1-methyl-4-N-[6-(trifluoromethyl)pyridin-3-yl]pyrazolo[3,4-d]pyrimidine-4,6-diamine] | 3.95 | 7.88 |  | 
5 | Cn1ncc2c(Nc3ccc(C(F)(F)F)cc3)nc(N[C@H]3COC[C@H]3N)nc21 [Compound 1.36, N6-[(3R,4S)-4-aminotetrahydrofuran-3-yl]-1-methyl-N4-[4-(trifluoromethyl)phenyl]pyrazolo[3,4-d]pyrimidine-4,6-diamine] | 5.66 | 10.6 |  | 
6 | Cc1nn(C)c2nc(NCC(C)(C)N)cc(NCc3cccc(C(F)(F)F)c3)c12 [Compound 1.38, 6-N-(2-Amino-2-methylpropyl)-1,3-dimethyl-4-N-[[3-(trifluoromethyl)phenyl]methyl]pyrazolo[3,4-b]pyridine-4,6-diamine] | 8.63 | 4 |  | 
7 | Cn1ncc2c(NCc3ccc(F)c(Cl)c3)nc(NCC3(N)CC3)nc21 [Compound 2.02, 6-N-[(1-Aminocyclopropyl)methyl]-4-N-[(3-chloro-4-fluorophenyl)methyl]-1-methylpyrazolo[3,4-d]pyrimidine-4,6-diamine] |  |  | 0.505 | 1.91
8 | Cn1ncc2c(Nc3ccc(F)cc3F)nc(NCC3(N)CC3)nc21 [Compound 2.05, 6-N-[(1-aminocyclopropyl)methyl]-4-N-(2,4-difluorophenyl)-1-methylpyrazolo[3,4-d]pyrimidine-4,6-diamine] |  |  | 1.67 | 5.05
9 | Cn1ncc2c(Nc3cccc(C(F)(F)F)c3)nc(NCC3(N)CC3)nc21 [Compound 2.06, 6-N-[(1-aminocyclopropyl)methyl]-1-methyl-4-N-[3-(trifluoromethyl)phenyl]pyrazolo[3,4-d]pyrimidine-4,6-diamine] |  |  | 0.509 | 2.21
10 | Cn1ncc2c(Nc3cccnc3)nc(NCC3(N)CC3)nc21 [Compound 2.10, 6-N-[(1-aminocyclopropyl)methyl]-1-methyl-4-N-pyridin-3-ylpyrazolo[3,4-d]pyrimidine-4,6-diamine] |  |  | 8.68 | 15.7
11 | Cn1ncc2c(Nc3ccccc3)nc(NCC3(N)CC3)nc21 [Compound 2.11, 6-N-[(1-aminocyclopropyl)methyl]-1-methyl-4-N-phenylpyrazolo[3,4-d]pyrimidine-4,6-diamine] |  |  | 0.49 | 2.89
12 | Cn1ncc2c(NCc3cccc(Br)c3)nc(NCC3(N)CC3)nc21 [Compound 2.12, 6-N-[(1-aminocyclopropyl)methyl]-4-N-[(3-bromophenyl)methyl]-1-methylpyrazolo[3,4-d]pyrimidine-4,6-diamine] |  |  | 0.588 | 1.49
13 | Cn1ncc2c(Nc3ccc(F)cc3Cl)nc(NCC3(N)CC3)nc21 [Compound 2.14, 6-N-[(1-aminocyclopropyl)methyl]-4-N-(2-chloro-4-fluorophenyl)-1-methylpyrazolo[3,4-d]pyrimidine-4,6-diamine] |  |  | 5.96 | 9.59
14 | Cn1ncc2c(Nc3cc(F)cc(Cl)c3)nc(NCC3(N)CC3)nc21 [Compound 2.16, 6-N-[(1-aminocyclopropyl)methyl]-4-N-(3-chloro-5-fluorophenyl)-1-methylpyrazolo[3,4-d]pyrimidine-4,6-diamine] |  |  | 0.452 | 0.959
15 | Cn1ncc2c(NCc3ccc(C(F)(F)F)nc3)nc(NCC3(N)CC3)nc21 [Compound 2.19, 6-N-[(1-aminocyclopropyl)methyl]-1-methyl-4-N-[[6-(trifluoromethyl)pyridin-3-yl]methyl]pyrazolo[3,4-d]pyrimidine-4,6-diamine] |  |  | 7.12 | 11.7

Continued by falling IC50 (BCDIN3D [1]; [5]), values first:

Row | IC50 (BCDIN3D [1]; [3]) [µM] | IC50 (BCDIN3D [2]; [4]) [µM] | IC50 (BCDIN3D [1]; [5]) [µM] | IC50 (BCDIN3D [2]; [6]) [µM] | SMILES
16 |  |  | 0.446 | 1.63 | Cn1ncc2c(Nc3ccc(Cl)cc3F)nc(NCC3(N)CC3)nc21 [Compound 2.15, 6-N-[(1-aminocyclopropyl)methyl]-4-N-(4-chloro-2-fluorophenyl)-1-methylpyrazolo[3,4-d]pyrimidine-4,6-diamine]
17 |  |  | 0.443 | 4.1 | Cn1ncc2c(Nc3cccc(C(F)F)c3)nc(NCC3(N)CC3)nc21 [Compound 2.07, 6-N-[(1-aminocyclopropyl)methyl]-4-N-[3-(difluoromethyl)phenyl]-1-methylpyrazolo[3,4-d]pyrimidine-4,6-diamine]
18 |  |  | 0.44 | 2.56 | Cn1ncc2c(Nc3ccc(Cl)c(C#N)c3)nc(NCC3(N)CC3)nc21 [Compound 2.17, 5-[[6-[(1-aminocyclopropyl)methylamino]-1-methyl-pyrazolo[3,4-d]pyrimidin-4-yl]amino]-2-chloro-benzonitrile]
19 |  |  | 0.369 | 1.61 | Cn1ncc2c(NCc3ccc(Br)cc3)nc(NCC3(N)CC3)nc21 [Compound 2.13, 6-N-[(1-aminocyclopropyl)methyl]-4-N-[(4-bromophenyl)methyl]-1-methylpyrazolo[3,4-d]pyrimidine-4,6-diamine]
20 |  |  | 0.275 | 0.707 | Cc1ccc(CNc2nc(NCC3(N)CC3)nc3c2cnn3C)cc1Cl [Compound 2.01, 6-N-[(1-Aminocyclopropyl)methyl]-4-N-[(3-chloro-4-methylphenyl)methyl]-1-methylpyrazolo[3,4-d]pyrimidine-4,6-diamine]
21 |  |  | 0.242 | 2.72 | Cn1ncc2c(Nc3ccc(F)cc3)nc(NCC3(N)CC3)nc21 [Compound 2.08, 6-N-[(1-aminocyclopropyl)methyl]-4-N-(4-fluorophenyl)-1-methylpyrazolo[3,4-d]pyrimidine-4,6-diamine]
22 |  |  | 0.111 | 0.207 | Cn1ncc2c(NC34CC(c5ccccc5)(C3)C4)nc(NCC3(N)CC3)nc21 [Compound 2.18, N6-[(1-aminocyclopropyl)methyl]-1-methyl-N4-(1-phenyl-3-bicyclo[1.1.1]pentanyl)pyrazolo[3,4-d]pyrimidine-4,6-diamine]
23 |  |  | 0.0608 | 1.8 | COc1ccc(Nc2nc(NCC3(N)CC3)nc3c2cnn3C)cc1Cl [Compound 2.04, 6-N-[(1-aminocyclopropyl)methyl]-4-N-(3-chloro-4-methoxyphenyl)-1-methylpyrazolo[3,4-d]pyrimidine-4,6-diamine]
24 |  |  | 0.0398 | 0.602 | Cc1ccc(Nc2nc(NCC3(N)CC3)nc3c2cnn3C)cc1Cl [Compound 2.09, 6-N-[(1-aminocyclopropyl)methyl]-4-N-(3-chloro-4-methylphenyl)-1-methylpyrazolo[3,4-d]pyrimidine-4,6-diamine]
25 |  |  | 0.0207 | 0.282 | Cn1ncc2c(Nc3ccc(C(F)(F)F)c(F)c3)nc(NCC3(N)CC3)nc21 [Compound 2.03, N6-[(1-aminocyclopropyl)methyl]-N4-[3-fluoro-4-(trifluoromethyl)phenyl]-1-methyl-pyrazolo[3,4-d]pyrimidine-4,6-diamine]
